{"source": "patent US11957684B2", "about": "“Treatment of heavy menstrual bleeding associated with uterine fibroids” (Sumitomo Pharma Switzerland GmbH, priority 2016, dated 2024)", "key": {"women with endometriosis": {"system": "women with endometriosis", "assay": "Example 7: bone mineral density and serum hormones", "type": "in vivo, human", "source_text": "Subjects were diagnosed with endometriosis within the 5 years before screening and had dysmenorrhea and pelvic pain, of which either 1 or both was at least “moderate” as determined by the investigator using the Biberoglu & Behrman (B&B) scale. […] Secondary endpoints included VAS score for pelvic pain, dysmenorrhea, and dyspareunia during the treatment period."}, "uterine fibroids": {"system": "uterine fibroids", "assay": "Example 10 phase 3 study versus leuprorelin in uterine fibroids: efficacy", "type": "in vivo, human", "conditions": "between Week 6 and Week 12", "method": "Subjects were aged 20 years or older inclusive, with uterine fibroids. […] The number of sites for this study was approximately 40.\nThe leuprorelin subjects were administered 1.88 mg leuprorelin, 3.75 mg leuprorelin, or placebo subcutaneously once every 4 weeks. The duration of treatment for both groups was 24 weeks, and the follow-up period was 4 weeks.\nAssessment included answers to the uterine fibroid symptom and quality of life questionnaire provided in FIGS. 3A-3C; answers to the work productivity and activity impairment questionnaire: general health provided in FIGS. 66A-66B; clinical laboratory tests for hematology, chemistries, urinalysis, hormone, and biochemical bone metabolism markers."}, "endometriosis": {"system": "endometriosis", "assay": "Example 7 12-week study in endometriosis: efficacy (VAS, B&B, EHP-30)", "type": "in vivo, human", "conditions": "3.75 mg sc/4 wk", "method": "Secondary endpoints included VAS score for pelvic pain, dysmenorrhea, and dyspareunia during the treatment period. […] Subjects recorded in the patient diary every day until the end of treatment. […] Designated examinations and evaluations were performed at each visit. As used in the examples, the VAS score was evaluated using a 100 mm scale. For pain intensity, the scale was anchored by “no pain” (score of 0) and “pain as bad as you can imagine” (score of 100). […] The above items were evaluated using a patient diary that was distributed by the sponsor. Subjects filled out the patient diary every day during the treatment period or until early termination. If taking prohibited analgesics, subjects recorded this fact in the patient diary along with the accompanying pain symptoms before use of analgesics. As used in the examples, pain during menstruation and pelvic pain unrelated to menstruation were evaluated using scores on the M-B&B and B&B. The M-B&B scores were recorded by subjects on the patient diary supplied by the sponsor. Subjects filled out the patient diary every day during the treatment period or until early termination. If taking prohibited analgesics, subjects recorded this fact in the patient diary along with the accompanying pain symptoms before use of analgesics. The investigator or subinvestigator assessed each patient's pain through interviews and filled out a B&B once a month. The items that were assessed are shown below. The M-B&B score included: dysmenorrhea (severe, moderate, mild, no pain, or no menstruation); pelvic pain (severe, moderate, mild, or no pain); deep dyspareunia (severe, moderate, mild, no pain, or no intercourse). The B&B score included: dysmenorrhea (severe, moderate, mild, none, or not applicable); dyspareunia (severe, moderate, mild, none, or not applicable); pelvic pain (severe, moderate, mild, or none); pelvic tenderness (severe, moderate, mild, or none); and induration (severe, moderate, mild, or none). As used in the examples, the EHP-30 score was obtained by subjects assessing and recording their own QOL using the EHP-30 questionnaire."}, "[1]": {"system": "women with uterine fibroids", "assay": "Example 10: safety", "conditions": "24 wk", "quoted_text": "Secondary endpoints for safety included: Adverse events (AEs), vital signs, weight, standard 12-lead electrocardiogram (ECG), clinical laboratory tests, BMD, biochemical bone metabolism markers (serum N-telopeptide [NTELOP] and bone specific alkaline phosphatase [BAP])"}, "[2]": {"system": "LH, FSH, estradiol (E2), progesterone (P), CA125", "assay": "Example 8A: serum LH, FSH, E2, P and CA125", "type": "in vivo, human", "quoted_text": "Study participants were premenopausal (≥20 years) Japanese women with endometriosis (EM)-associated pain who completed a preceding 12-week study and were eligible to continue for an additional 12-week treatment were enrolled. The participants has confirmed normal regular menstrual cycles (25 to 38 days per cycle) and diagnosed to have EM and EM-related dysmenorrhea and pelvic pain of at least moderate severity as determined by the physician B&B scale. The primary endpoint was the safety including assessment of change in bone mineral density (BMD) using dual energy x-ray absorptiometry, adverse events, vital signs, weight, 12-lead electrocardiograms, and clinical laboratory tests. […] Baseline characteristics were similar between randomized patients and all patients who entered the extension study."}, "[3]": {"conditions": "Compound 1 40 mg, leuprolide acetate 3.75 mg/4 wk"}}}
{"smiles": "CCNC(=O)[C@@H]1CCCN1C(=O)[C@H](CCCNC(=N)N)NC(=O)[C@H](CC(C)C)NC(=O)[C@@H](CC(C)C)NC(=O)[C@H](Cc1ccc(O)cc1)NC(=O)[C@H](CO)NC(=O)[C@H](Cc1c[nH]c2ccccc12)NC(=O)[C@H](Cc1c[nH]cn1)NC(=O)[C@@H]1CCC(=O)N1", "note": "[leuprolide acetate, reference compound]", "values": [{"measurement": "week from which median serum estradiol was below LLQ", "setting": "women with endometriosis; [3]", "value": 4, "unit": "Week"}, {"measurement": "mean estradiol serum concentration four weeks after discontinuation", "setting": "women with endometriosis; FIG. 162, relative to control (placebo)", "value": "only about one-fifth of the control"}, {"measurement": "proportion of subjects with a PBAC <10", "setting": "uterine fibroids", "value": 83.1, "unit": "%"}, {"measurement": "Physician B&B, dysmenorrhea", "setting": "endometriosis; Week 12", "value": "−2.1"}, {"measurement": "Physician B&B, dyspareunia", "setting": "endometriosis; Week 12", "value": "−0.6"}, {"measurement": "Physician B&B, non-menstrual pelvic pain", "setting": "endometriosis; Week 12", "value": "−1.1"}, {"measurement": "change from baseline in EHP-30, Control and powerlessness", "setting": "endometriosis; Week 12", "value": "−19.6"}, {"measurement": "change from baseline in EHP-30, Self-image", "setting": "endometriosis; Week 12", "value": "−6.1"}, {"measurement": "change from baseline in EHP-30, emotional well-being", "setting": "endometriosis; Week 12", "value": "−8.8"}, {"measurement": "change from baseline in EHP-30, pain", "setting": "endometriosis; Week 12", "value": "−23.2"}, {"measurement": "change from baseline in EHP-30, social support", "setting": "endometriosis; Week 12", "value": "−6.8"}, {"measurement": "change from baseline in mean VAS score, pelvic pain", "setting": "endometriosis; end of 12-wk treatment period", "value": "−10.460±10.3013", "unit": "mm"}, {"measurement": "Modified (patient) B&B, deep dyspareunia", "setting": "endometriosis; end of treatment", "value": "−0.36"}, {"measurement": "Modified (patient) B&B, dysmenorrhea", "setting": "endometriosis; end of treatment", "value": "−1.16"}, {"measurement": "Modified (patient) B&B, non-menstrual pelvic pain", "setting": "endometriosis; end of treatment", "value": "−0.41"}, {"measurement": "change from baseline in proportion of days with usage of analgesics", "setting": "endometriosis; end of treatment", "value": "−8.3"}, {"measurement": "Deaths", "setting": "[1]", "value": "0(0.0) n(%)"}, {"measurement": "median change in serum E2 from baseline", "setting": "[2]; 3.75 mg sc/4 wk, Week 24", "value": -40.0, "unit": "pg/mL"}, {"measurement": "median change in serum FSH from baseline", "setting": "[2]; 3.75 mg sc/4 wk, Week 24", "value": "−2.730", "unit": "mIU/mL"}, {"measurement": "median change in serum LH from baseline", "setting": "[2]; 3.75 mg sc/4 wk, Week 24", "value": "−3.140", "unit": "mIU/mL"}, {"measurement": "median change in serum progesterone (P) from baseline", "setting": "[2]; 3.75 mg sc/4 wk, Week 24", "value": -0.070, "unit": "ng/mL"}, {"measurement": "percent change from baseline in CA125 concentration", "setting": "[2]; 3.75 mg sc/4 wk, Week 24", "value": "−54.15±46.359", "unit": "%"}, {"measurement": "subjects with CA125 less than or equal to 35 U/mL", "setting": "[2]; 3.75 mg sc/4 wk, Week 24", "value": 88.9, "unit": "%"}, {"measurement": "week at which median serum E2 decreased to LLQ", "setting": "[2]; [3]", "value": 4, "unit": "Week"}]}
